Entries after “also recorded” stand apart in the source; their conditions may differ.
Legend:
[1] = system: participants with SSc-RP; experiment: SHAQ Visual Analog Scale - Finger Ulcers; type: in vivo, human; parameters: Finger Ulcers, Baseline, Mean / Finger Ulcers, Baseline, Median / Finger Ulcers, Change from Baseline, Mean / Finger Ulcers, Change from Baseline, Median: scale not given here
Method: (§1) Results: Patients in the study were administered the Scleroderma Health Assessment Questionnaire (SHAQ) at the time of study entry and during clinic visits following the treatment period. The study is a two-part, parallel arm design, prospective, double-blind, randomized study conducted in Australia (Flinders Medical Center). 27 patients were randomized into the first phase of the study, following which a DSMB meeting was held, which reviewed data on the primary study endpoint and key Raynaud's secondary endpoints. Data on the SHAQ was not available for the DSMB to review. The mITT population, in which any data was available post treatment was 24 patients was the analysis population for this first part of the study. The second part (i.e., part B) of the study will randomize 36 patients in a double blind, randomized, prospective, placebo controlled, crossover study. In the first part (i.e., Part A) of the study for which data is presented, patients were randomized into 6 groups, cilnidipine at two doses (10 and 20 mg) alone and in combination with tadalafil 5 mg, tadalafil 5 mg alone, and placebo. […] The DSMB recommended that the study proceed into its double blind prospective cross overpowered second phase and compare cilnidipine 20 mg alone to placebo. […] Cilnidipine treatment may reduce patient-reported SSc disease disability compared to placebo • b. Cilnidipine treatment may reduce patient-reported SSc disease alternative disability compared to placebo • c. Cilnidipine treatment may reduce patient-reported SSc disease pain* compared to placebo • d. Cilnidipine treatment may reduce patient-reported SSc disease severity compared to placebo • e. Cilnidipine treatment may reduce patient-reported SSc disease skin ulcer severity rating compared to placebo • f Cilnidipine treatment may reduce patient-reported SSc disease breathing difficulty compared to placebo • g. […] SSc disease pain comprises not only pain from Raynaud's but joint pain, headache, odynophagia, back pain, pain from skin ulceration, and neuropathic pain). Table E includes results of the Scleroderma Health Assessment Questionnaire.

[2] = system: participants with SSc-RP; experiment: Adverse events and serious adverse events (safety, tolerability); type: in vivo
Text: In this study, AEs and SAEs will be reported for all participants from the time of randomization until the completion of the Follow-up/EOS visit. Adverse events that are ongoing at the EOS visit will be marked as Not Recovered/Not resolved on the AE eCRF page.
An AE is any event, side effect, or other untoward medical occurrence that occurs in conjunction with the use of a medicinal product in humans, whether or not considered to have a causal relationship to this treatment. An AE can, therefore, be any unfavorable and unintended sign (that could include a clinically significant abnormal laboratory finding), symptom, or disease temporally associated with the use of a medicinal product, whether or not considered related to the medicinal product.
Severity of AEs will be graded by the Investigator as one of: • Mild (Grade 1): A type of AE that is usually transient and may require only minimal treatment or therapeutic intervention.
An SAE is an AE occurring during any study phase (i.e. baseline, treatment, washout, or follow-up), and at any dose of the study drug (active or placebo), that fulfills one or more of the following: • Results in death • It is immediately life-threatening • It requires in participant hospitalization or prolongation of existing hospitalization • It results in persistent or significant disability or incapacity • Results in a congenital abnormality or birth defect • It is an important medical event that may jeopardize the participant or may require medical intervention to prevent one of the outcomes listed above.
Adverse events will be coded using the most current version of the MedDRA® Version 22.0 or higher. The analysis of AEs will be based on the concept of treatment emergent AEs. Treatment emergent AEs will be tabulated by treatment group and will include the number of participants for whom the event occurred, the severity, and relationship to study drug. Treatment emergent AEs (TEAEs) leading to discontinuation and SAEs with onset after the start of study drug will also be summarized.
Treatment-emergent AEs (TEAEs) are defined as AEs that occur or worsen after the dose of study drug. If the timing of the start of an AE could not be determined unambiguously from the start or end dates provided, it will be assumed to be a TEAE. An AE is considered related if the relationship to either of the study drug has been indicated as possibly or probably or definite related by the investigator. An AE leading to study withdrawal is defined as an AE that cause a subject early terminated from the study. AEs will be identified as emerging in the following parts: • TEAEs for Part A will be those that started during Part A (i.e., from the first dose in Part A to end of follow up of Part A) • TEAEs for Part B will be those that started during Part B (i.e., from the first dose in Part B to end of follow-up of Part B).
• Incidence of treatment emergent adverse events (AEs) and serious adverse events (SAEs), including clinically significant vital signs. For Part A safety will be assessed from the time of randomization until 7 days following the last protocol dose. For Part B, participants will be followed for 28 days from the last study dose. • Serious adverse events will be monitored by a DSMB (Part A) and Drug Safety Officer (Part B) on an ongoing basis throughout the study. • Adverse events will be coded using the MedDRA and summarized by SOC, PT, and treatment group.

[3] = system: participants with SSc-RP; experiment: SHAQ Visual Analog Scale - overall disease severity; type: in vivo, human; parameters: Overall Change in Severity, Baseline, Mean / Overall Change in Severity, Baseline, Median / Overall Change in Severity, Change from Baseline, Mean / Overall Change in Severity, Change from Baseline, Median: scale not given here
Method: as §1

[4] = system: participants with SSc-RP; experiment: SHAQ Visual Analog Scale - Breathing Problems; type: in vivo, human; parameters: Visual Analog Scale-Breathing Problems, Baseline, Mean / Visual Analog Scale-Breathing Problems, Baseline, Median / Visual Analog Scale-Breathing Problems, In Clinic Visit (Day 12), Mean / Visual Analog Scale-Breathing Problems, In Clinic Visit (Day 12), Median / Visual Analog Scale-Breathing Problems, Change from Baseline, Mean / Visual Analog Scale-Breathing Problems, Change from Baseline, Median: scale not given here; conditions: for % improvement in Breathing (median): mITT
Method: as §1

[5] = Cilnidipine 10 mg, Modified ITT, Part A
[6] = Cilnidipine 20 mg, Modified ITT, Part A
[7] = Pooled Cilnidipine (10 mg or 20 mg, N = 7), mITT Part A
[8] = Tadalafil 5 mg, Modified ITT, Part A

Compound: COCCOC(=O)C1=C(C)NC(C)=C(C(=O)OC/C=C/c2ccccc2)C1c1cccc([N+](=O)[O-])c1 (stereo not drawn) [Cilnidipine, 1,4-dihydro-2,6-dimethyl,4-(3-nitrophenyl)-3,5-pyridinedicarboxylic acid 2-methoxyethyl (2 E)-3-phenyl-2-propenyl ester]
- Finger Ulcers, Baseline, Mean [1, 5]: 0.700
- Finger Ulcers, Baseline, Median [1, 5]: 0.500
- Finger Ulcers, Change from Baseline, Median [1, 5]: −0.350
- Finger Ulcers, In Clinic Visit (Day 12), Median [1, 5]: 0.000
- Finger Ulcers, Baseline, Mean [1, 6]: 1.800
- Finger Ulcers, Baseline, Median [1, 6]: 0.300
- Finger Ulcers, Change from Baseline, Median [1, 6]: 0.000
- Finger Ulcers, In Clinic Visit (Day 12), Median [1, 6]: 0.700
- patient-reported SSc disease skin ulcer severity rating compared to placebo ([1]; Example 4, SHAQ, mITT Part A): may reduce
- Safety: withdrawals ([2]; Cilnidipine 20 mg (n = 8)): 1 withdrawal
- Safety: number of AE ([2]; Cilnidipine 20 mg (n = 8), HA-mild): 1AE (HA-mild;
- severity grade of adverse events ([2]; Example 4): only Grade 1 Adverse Events (AEs) were reported; also recorded: only mild (Grade 1) adverse events occurred
- tolerability ([2]; Example 4, 10 mg and 20 mg, alone or in combination with tadalafil): well tolerated; also recorded: good tolerability
- overall adverse event rate / incidence of Adverse Events ([2]; Example 4, all patients who received any dose of cilnidipine (n=17)): 17%
- Safety: withdrawals ([2]; Pooled Cilnidipine (n = 9)): T); no withdrawals
- Safety: number of AE ([2]; Pooled Cilnidipine (n = 9), AE in combo with T): 1AE (in combo with
- Overall Change in Severity, Baseline, Median [3, 5]: 1.900
- Overall Change in Severity, Change from Baseline, Mean [3, 5]: −0.900
- Overall Change in Severity, Change from Baseline, Median [3, 5]: −0.950
- Overall Change in Severity, Baseline, Median [3, 6]: 2.900
- Overall Change in Severity, Change from Baseline, Median [3, 6]: −1.600
- Overall Change in Severity, In Clinic Visit (Day 12), Median [3, 6]: 1.200
- Overall Change in Severity, Percent Change from Baseline, Median [3, 6]: −60.00%
- patient-reported SSc disease severity compared to placebo ([3]; Example 4, SHAQ, mITT Part A): may reduce
- SHAQ patient reported disease severity: Baseline, Mean (SD) [3, 7]: 2.700 (2.3424)
- SHAQ patient reported disease severity: Baseline, Median [3, 7]: 2.900
- Visual Analog Scale-Breathing Problems, Baseline, Median [4, 5]: 0.000
- % improvement in Breathing (median) ([4]; Cilnidipine 20 mg (n = 3), SHAQ): 67% (median)
- VAS - Breathing problems, Baseline on a 0-10 VAS ([4]; Cilnidipine 20 mg (n = 3), last footnote): **Baseline was 1.13 on a 0-10 VAS
- Visual Analog Scale-Breathing Problems, Baseline, Median [4, 6]: 1.200
- patient-reported SSc disease breathing difficulty compared to placebo ([4]; Example 4, SHAQ, mITT Part A): may reduce
- % improvement in Breathing (median) ([4]; Pooled Cilnidipine (n = 7), SHAQ): 41% (median)

Compound: CN1CC(=O)N2[C@H](c3ccc4c(c3)OCO4)c3[nH]c4ccccc4c3C[C@@H]2C1=O [Tadalafil]
- Finger Ulcers, Baseline, Mean [1, 8]: 2.125
- Finger Ulcers, Baseline, Median [1, 8]: 0.050
- Finger Ulcers, Change from Baseline, Mean [1, 8]: −0.967
- Finger Ulcers, Change from Baseline, Median [1, 8]: −0.100
- Finger Ulcers, In Clinic Visit (Day 12), Mean [1, 8]: 1.867
- Finger Ulcers, In Clinic Visit (Day 12), Median [1, 8]: 0.000
- Finger Ulcers, Percent Change from Baseline, Mean [1, 8]: −66.67%
- Finger Ulcers, Percent Change from Baseline, Median [1, 8]: −66.67%
- Adverse Events (AEs): worst AE by group ([2]; tadalafil monotherapy group): Worst AE in tadalafil
- Overall Change in Severity, Baseline, Mean [3, 8]: 3.600
- Overall Change in Severity, Baseline, Median [3, 8]: 2.550
- Overall Change in Severity, Change from Baseline, Mean [3, 8]: −0.850
- Overall Change in Severity, Change from Baseline, Median [3, 8]: −0.650
- Overall Change in Severity, In Clinic Visit (Day 12), Mean [3, 8]: 2.750
- Overall Change in Severity, In Clinic Visit (Day 12), Median [3, 8]: 1.500
- Overall Change in Severity, Percent Change from Baseline, Mean [3, 8]: −31.76%
- Overall Change in Severity, Percent Change from Baseline, Median [3, 8]: −36.22%
- Visual Analog Scale-Breathing Problems, Baseline, Mean [4, 8]: 1.025
- Visual Analog Scale-Breathing Problems, Baseline, Median [4, 8]: 0.450
- Visual Analog Scale-Breathing Problems, Change from Baseline, Mean [4, 8]: 0.925
- Visual Analog Scale-Breathing Problems, Change from Baseline, Median [4, 8]: 0.300
- Visual Analog Scale-Breathing Problems, In Clinic Visit (Day 12), Mean [4, 8]: 1.950
- Visual Analog Scale-Breathing Problems, In Clinic Visit (Day 12), Median [4, 8]: 0.450
- Visual Analog Scale-Breathing Problems, Percent Change from Baseline, Mean [4, 8]: 213.54%
- Visual Analog Scale-Breathing Problems, Percent Change from Baseline, Median [4, 8]: 115.63%
